Patent US20260317344A1, “EGFR INHIBITORS FOR TREATING DISEASE” (BLOSSOMHILL THERAPEUTICS, INC., priority 2023, published 2026)

How the values were obtained:
Assay type in all cases: cell-based
[1] = target: T1, pEGFR, A431 cells (wildtype EGFR) (Homo sapiens, UniProt P00533); test: Cellular EGFR phosphorylation assay (LANCE Ultra TR-FRET) in A431 cells; conditions: 4 hours at 37° C., 40 ng/mL EGF for the final 10 minutes, read-out: A431 pEGFR IC50
T1 construct: pEGFR (Tyr1068) TR-FRET
Procedure, shortened: (§1)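 PC-9 and NCI-H1975 cells (50 thousand/well) or A431 cells (30 thousand/well) treated next day for 4 h at 37° C with a 9-dose 3-fold titration; A431 stimulated with 40 ng/mL EGF for the final 10 min. Lysate phospho-EGFR (Tyr1068) read by LANCE Ultra TR-FRET; IC50 derived.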

[2] = system: NCI-H1975 cells; test: 5-Day CellTiter Glo (CTG) cell proliferation assay, NCI-H1975; conditions: Homo sapiens; NCI-H1975 cells (L858R/T790M EGFR), 5-day CTG proliferation, 120 hours; read-out: H1975 IC50
Procedure, shortened: (§2)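 Proliferation of EGFR-driven NSCLC cells was scored as CellTiter-Glo 2.0 luminescence after a 5-day (120 h) incubation with compounds in 9 doses. IC50 values came from the dose-response curves.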

[3] = system: BaF3 cells with engineered EGFR L858R/C797S; test: 3-Day CellTiter Glo (CTG) cell proliferation assay, BaF3 EGFR L858R/C797S; conditions: Mus musculus, 3-day CTG proliferation, 72 hours
Protocol: (§3) 3-DAY CellTiter Glo (CTG) Cell Proliferation Assays (BaF3 Cell Lines)
(§4) Cell proliferation assays were carried out in BaF3 cells engineered with EGFR mutations. BaF3 cells with engineered EGFR L858R/T790M/C797S, EGFR L858R/C797S, or EGFR d746-750/T790M transgene, one thousand cells/50 μL per well were seeded in white 384-well plate, followed by treatment with indicated compounds in a 9-dose dilution series using TECAN d300e liquid dispenser. Cells were incubated with compounds for 72 hours at 37° C. and 5% CO2. Cell proliferation was measured using CellTiter-Gbo 2.0 luciferase-based ATP detection assay (Promega, Madison, WI) at 18 μL per well following the manufacturer's protocol. Plates were then read on a TECAN Sparks multimode microplate reader. Data was analyzed using GraphPad Prism 9 (GraphiPad Software, San Diego, CA) to obtain IC50 values.

[4] = system: PC-9 cells; test: 5-Day CellTiter Glo (CTG) cell proliferation assay, PC-9; conditions: Homo sapiens; PC-9 cells (d746-750 EGFR), 5-day CTG proliferation, 120 hours; read-out: PC-9 IC50
Procedure, shortened: as §2

[5] = target: T2, pEGFR, PC-9 cells (d746-750 EGFR) (Homo sapiens, UniProt P00533, DEL746-750); test: Cellular EGFR phosphorylation assay (LANCE Ultra TR-FRET) in PC-9 cells; conditions: 4 hours at 37° C., read-out: PC-9 pEGFR IC50
T2 construct: pEGFR (Tyr1068) TR-FRET
T2 sequence (P00533 with tags, fused parts or gaps DEL746-750): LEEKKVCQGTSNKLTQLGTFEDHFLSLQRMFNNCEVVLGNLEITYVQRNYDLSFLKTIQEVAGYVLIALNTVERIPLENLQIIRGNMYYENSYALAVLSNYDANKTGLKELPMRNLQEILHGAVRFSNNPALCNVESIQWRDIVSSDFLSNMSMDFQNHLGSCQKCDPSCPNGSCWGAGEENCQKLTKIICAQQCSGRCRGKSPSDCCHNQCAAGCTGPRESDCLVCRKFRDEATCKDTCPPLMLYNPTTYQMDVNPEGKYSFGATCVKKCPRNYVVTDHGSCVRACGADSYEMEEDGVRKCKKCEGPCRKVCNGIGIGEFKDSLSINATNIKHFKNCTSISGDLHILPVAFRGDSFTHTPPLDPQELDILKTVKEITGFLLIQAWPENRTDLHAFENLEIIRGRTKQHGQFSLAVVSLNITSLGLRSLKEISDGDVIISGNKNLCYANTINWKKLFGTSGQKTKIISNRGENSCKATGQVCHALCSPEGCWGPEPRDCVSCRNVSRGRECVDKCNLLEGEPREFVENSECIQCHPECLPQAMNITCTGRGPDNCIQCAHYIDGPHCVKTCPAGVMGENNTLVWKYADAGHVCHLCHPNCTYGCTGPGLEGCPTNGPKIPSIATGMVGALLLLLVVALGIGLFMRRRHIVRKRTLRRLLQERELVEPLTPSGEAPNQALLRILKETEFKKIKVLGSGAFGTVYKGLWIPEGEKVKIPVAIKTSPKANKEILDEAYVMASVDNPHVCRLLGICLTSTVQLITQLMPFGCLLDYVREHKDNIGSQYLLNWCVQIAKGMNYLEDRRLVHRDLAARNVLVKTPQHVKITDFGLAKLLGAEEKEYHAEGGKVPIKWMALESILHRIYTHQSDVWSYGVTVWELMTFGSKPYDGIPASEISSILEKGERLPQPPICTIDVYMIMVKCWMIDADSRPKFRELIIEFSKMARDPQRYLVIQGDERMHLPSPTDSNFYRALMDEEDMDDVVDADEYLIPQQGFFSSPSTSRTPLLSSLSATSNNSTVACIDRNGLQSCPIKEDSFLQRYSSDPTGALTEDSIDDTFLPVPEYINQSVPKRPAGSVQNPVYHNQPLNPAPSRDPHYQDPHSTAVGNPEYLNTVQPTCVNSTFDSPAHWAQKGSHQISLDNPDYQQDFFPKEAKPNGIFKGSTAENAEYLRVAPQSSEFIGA
Procedure, shortened: as §1

[6] = system: BaF3 cells with engineered EGFR d746-750/T790M; test: 3-Day CellTiter Glo (CTG) cell proliferation assay, BaF3 EGFR d746-750/T790M; conditions: Mus musculus; BaF3 EGFR d746-750/T790M cells, 3-day CTG proliferation, 72 hours
Protocol: as §3, §4

[7] = system: HCC827 cells; test: 5-Day CellTiter Glo (CTG) cell proliferation assay, HCC827; conditions: Homo sapiens; HCC827 cells (d746-750 EGFR), 5-day CTG proliferation, 120 hours; read-out: HCC827 IC50
Procedure, shortened: as §2

[8] = system: BaF3 cells with engineered EGFR L858R/T790M/C797S; test: 3-Day CellTiter Glo (CTG) cell proliferation assay, BaF3 EGFR L858R/T790M/C797S; conditions: Mus musculus, 3-day CTG proliferation, 72 hours
Procedure, shortened: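 Growth inhibition in transgene-bearing BaF3 lines was scored after three days of compound treatment by CellTiter-Glo 2.0 ATP luminescence, yielding IC50 values.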

[9] = target: T3, pEGFR, NCI-H1975 cells (L858R/T790M EGFR) (Homo sapiens, UniProt P00533, L858R/T790M); test: Cellular EGFR phosphorylation assay (LANCE Ultra TR-FRET) in NCI-H1975 cells; conditions: 4 hours at 37° C., read-out: H1975 pEGFR IC50
T3 construct: pEGFR (Tyr1068) TR-FRET
T3 sequence (P00533 25-1210 T790M/L858R): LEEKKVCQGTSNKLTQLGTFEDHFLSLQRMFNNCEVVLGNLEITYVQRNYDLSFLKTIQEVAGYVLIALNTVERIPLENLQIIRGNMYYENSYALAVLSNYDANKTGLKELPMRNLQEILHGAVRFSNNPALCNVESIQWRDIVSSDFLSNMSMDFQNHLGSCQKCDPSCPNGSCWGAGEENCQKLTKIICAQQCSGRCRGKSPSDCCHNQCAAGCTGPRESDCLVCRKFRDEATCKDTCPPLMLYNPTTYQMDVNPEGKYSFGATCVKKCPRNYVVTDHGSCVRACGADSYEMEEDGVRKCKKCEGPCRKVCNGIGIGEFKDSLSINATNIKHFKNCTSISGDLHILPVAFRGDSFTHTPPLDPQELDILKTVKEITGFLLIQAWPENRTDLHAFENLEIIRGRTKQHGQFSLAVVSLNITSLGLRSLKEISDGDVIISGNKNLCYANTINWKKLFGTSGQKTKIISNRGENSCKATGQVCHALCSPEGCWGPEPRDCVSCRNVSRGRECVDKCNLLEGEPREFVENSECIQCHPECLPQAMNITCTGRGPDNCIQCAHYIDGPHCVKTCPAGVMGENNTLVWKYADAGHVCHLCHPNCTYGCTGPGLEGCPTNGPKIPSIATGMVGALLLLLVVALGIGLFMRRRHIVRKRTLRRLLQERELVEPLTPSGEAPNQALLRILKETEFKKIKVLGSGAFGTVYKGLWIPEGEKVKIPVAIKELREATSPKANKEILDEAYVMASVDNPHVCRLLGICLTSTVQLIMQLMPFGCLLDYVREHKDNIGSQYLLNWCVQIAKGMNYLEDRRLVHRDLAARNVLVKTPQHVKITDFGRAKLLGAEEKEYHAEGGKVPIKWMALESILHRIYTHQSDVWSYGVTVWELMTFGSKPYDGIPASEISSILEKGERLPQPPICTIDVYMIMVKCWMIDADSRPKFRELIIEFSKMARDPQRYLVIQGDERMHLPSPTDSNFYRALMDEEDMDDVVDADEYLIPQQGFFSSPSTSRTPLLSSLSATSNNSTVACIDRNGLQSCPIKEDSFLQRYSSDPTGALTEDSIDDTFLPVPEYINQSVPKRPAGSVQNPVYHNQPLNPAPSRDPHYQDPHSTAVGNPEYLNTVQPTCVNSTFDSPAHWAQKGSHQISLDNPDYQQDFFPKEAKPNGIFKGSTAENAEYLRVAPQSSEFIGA
Procedure, shortened: as §1

T1 sequence (P00533 25-1210): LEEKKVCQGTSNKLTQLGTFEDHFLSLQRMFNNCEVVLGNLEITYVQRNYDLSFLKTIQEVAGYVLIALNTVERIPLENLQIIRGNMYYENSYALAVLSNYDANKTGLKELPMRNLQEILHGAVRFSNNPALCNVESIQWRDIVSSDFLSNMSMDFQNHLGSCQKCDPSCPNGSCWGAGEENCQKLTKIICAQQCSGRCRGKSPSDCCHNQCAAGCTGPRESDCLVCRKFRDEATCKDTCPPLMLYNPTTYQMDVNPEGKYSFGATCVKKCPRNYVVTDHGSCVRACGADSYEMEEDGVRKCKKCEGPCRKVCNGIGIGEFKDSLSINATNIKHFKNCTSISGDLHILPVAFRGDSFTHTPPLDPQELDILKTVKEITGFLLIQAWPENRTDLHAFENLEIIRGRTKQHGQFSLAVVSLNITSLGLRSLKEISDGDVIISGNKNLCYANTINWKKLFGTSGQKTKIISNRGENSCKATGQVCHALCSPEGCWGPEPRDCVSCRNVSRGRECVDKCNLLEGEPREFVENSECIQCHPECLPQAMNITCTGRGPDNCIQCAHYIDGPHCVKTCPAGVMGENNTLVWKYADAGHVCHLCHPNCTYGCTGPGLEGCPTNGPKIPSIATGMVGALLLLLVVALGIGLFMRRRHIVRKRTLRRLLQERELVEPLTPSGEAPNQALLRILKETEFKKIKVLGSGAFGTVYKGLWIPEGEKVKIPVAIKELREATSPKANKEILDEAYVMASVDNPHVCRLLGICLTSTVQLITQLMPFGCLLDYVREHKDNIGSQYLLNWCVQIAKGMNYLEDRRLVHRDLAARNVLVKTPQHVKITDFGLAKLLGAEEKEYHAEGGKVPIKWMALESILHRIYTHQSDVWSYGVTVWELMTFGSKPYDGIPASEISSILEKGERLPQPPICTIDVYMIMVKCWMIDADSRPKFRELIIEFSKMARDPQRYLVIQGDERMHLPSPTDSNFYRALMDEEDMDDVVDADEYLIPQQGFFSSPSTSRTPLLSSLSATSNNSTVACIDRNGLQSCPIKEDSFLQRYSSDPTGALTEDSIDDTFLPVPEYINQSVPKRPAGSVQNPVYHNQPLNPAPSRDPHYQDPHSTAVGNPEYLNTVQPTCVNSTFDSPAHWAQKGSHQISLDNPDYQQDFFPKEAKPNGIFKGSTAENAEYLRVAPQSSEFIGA

Compound	IC50 [1] [nM]	IC50 [2] [nM]	IC50 [3] [nM]	IC50 [4] [nM]	IC50 [5] [nM]	IC50 [6] [nM]	IC50 [7] [nM]	IC50 [8] [nM]	IC50 [9] [nM]
CCOc1nn([C@@H](C)CO)c2c1/C=C/c1n[nH]c3cnc(cc13)-c1c(C)nn(C)c1OC[C@@H](C)N(C1CC1)C2 [Ex. 111, (2S)-2-[(11R,17E)-12-cyclopropyl-16-ethoxy-6,8,11-trimethyl-2,8,10,11,12,13-hexahydro-14H-5,3-(azenometheno)tripyrazolo[3,4-f:3′,4′-j:4″,3″-n][1,4]oxazacyclopentadecin-14-yl]propan-1-ol]	1.46	3.12	0.11	1.52	1.06	0.78	0.43	1.11	2.08
CNc1nn([C@@H](C)CO)c2c1/C=C/c1n[nH]c3c(C)nc(cc13)-c1c(C)nn(C)c1O[C@@H](C)CN(C)C2 [Ex. 101, (2S)-2-[(10S,17E)-6,8,10,12,20-pentamethyl-16-(methylamino)-2,8,10,11,12,13-hexahydro-14H-5,3-(azenometheno)tripyrazolo[3,4-f:3′,4′-j:4″,3″-n][1,4]oxazacyclopentadecin-14-yl]propan-1-ol]	34.7	3.6	0.2	8.86	4.17	4.36	1.05	1.37	2.68
CCOc1nn(CCO)c2c1/C=C/c1n[nH]c3c(C)nc(cc13)-c1c(C)nn(C)c1O[C@@H](C)[C@H]1CCCN1C2 [Ex. 177, 2-[(8aR,9S,19E)-1-ethoxy-9,11,13,21-tetramethyl-7,8,8a,9,11,17-hexahydro-6H-14,16-(azenometheno)tripyrazolo[3,4-f:3′,4′-j:4″,3″-n]pyrrolo[2,1-c][1,4]oxazacyclopentadecin-3(4H)-yl]ethan-1-ol]	8.86	2.6	0.07	1.43	1.01	0.88	0.39	0.97	1.38
CCOc1nn([C@H](C)CO)c2c1/C=C/c1n[nH]c3cnc(cc13)-c1c(C)nn(C)c1O[C@H](C)CN(C)C2 [Ex. 89, (2R)-2-[(10R,17E)-16-ethoxy-6,8,10,12-tetramethyl-2,8,10,11,12,13-hexahydro-14H-5,3-(azenometheno)tripyrazolo[3,4-f:3′,4′-j:4″,3″-n][1,4]oxazacyclopentadecin-14-yl]propan-1-ol]	34.3	125	3.84	35.3	16.1	43.3	11	20.8	48.1
CCOc1nn(CCO)c2c1/C=C/c1n[nH]c3cnc(cc13)-c1c(C)nn(C)c1O[C@@H](C)CN(C1CC1)C2 [Ex. 113, 2-[(10S,17E)-12-cyclopropyl-16-ethoxy-6,8,10-trimethyl-2,8,10,11,12,13-hexahydro-14H-5,3-(azenometheno)tripyrazolo[3,4-f:3′,4′-j:4″,3″-n][1,4]oxazacyclopentadecin-14-yl]ethan-1-ol]	11.1	1.4	0.11	0.68	1.98	1.18	0.45	0.91	1.58
CCOc1nn(C[C@H](C)O)c2c1/C=C/c1n[nH]c3cnc(cc13)-c1c(C)nn(C)c1O[C@@H](C)CN(C1CC1)C2 [Ex. 107, (2S)-1-[(10S,17E)-12-cyclopropyl-16-ethoxy-6,8,10-trimethyl-2,8,10,11,12,13-hexahydro-14H-5,3-(azenometheno)tripyrazolo[3,4-f:3′,4′-j:4″,3″-n][1,4]oxazacyclopentadecin-14-yl]propan-2-ol]	5.13	55.2	0.49	10.6	4.41	4	2.12	3.55	7.07
CCOc1nn(CCO)c2c1/C=C/c1n[nH]c3c(C)nc(cc13)-c1c(C)nn(C)c1OCCN(C)C2 [Ex. 75, 2-[(17E)-16-ethoxy-6,8,12,20-tetramethyl-2,8,10,11,12,13-hexahydro-14H-5,3-(azenometheno)tripyrazolo[3,4-f:3′,4′-j:4″,3″-n][1,4]oxazacyclopentadecin-14-yl]ethan-1-ol]	53.7	74	0.22	43.1	15	203	10.6	2.94	7.41
CCOc1nn(CCO)c2c1/C=C/c1n[nH]c3cnc(cc13)-c1c(C)nn(C)c1OC[C@@H](C)N(C1CC1)C2 [Ex. 114, 2-[(11R,17E)-12-cyclopropyl-16-ethoxy-6,8,11-trimethyl-2,8,10,11,12,13-hexahydro-14H-5,3-(azenometheno)tripyrazolo[3,4-f:3′,4′-j:4″,3″-n][1,4]oxazacyclopentadecin-14-yl]ethan-1-ol]	22.2	27.1	0.42	4.87	3.56	3.72	1.66	1.84	5.67
CCOc1nn([C@@H](C)CO)c2c1/C=C/c1n[nH]c3cnc(cc13)-c1c(C)nn(C)c1O[C@@H](C)CNC2 [Ex. 92, (2S)-2-[(10S,17E)-16-ethoxy-6,8,10-trimethyl-2,8,10,11,12,13-hexahydro-14H-5,3-(azenometheno)tripyrazolo[3,4-f:3′,4′-j:4″,3″-n][1,4]oxazacyclopentadecin-14-yl]propan-1-ol]	33.4	68.5	0.74	43.4	12.6	29.7	5.37	4.12	14.1
CCOc1nn([C@@H](C)CO)c2c1/C=C/c1n[nH]c3c(C)nc(cc13)-c1c(C)nn(C)c1O[C@H](C)CN(C)C2 [Ex. 98]	16.8	3.34	0.24	5.71	3.62	1.01	1.35	0.74	1.9
CCOc1nn(C[C@H](C)O)c2c1/C=C/c1n[nH]c3cnc(cc13)-c1c(C)nn(C)c1O[C@@H](C)CN(C)C2 [Ex. 86, (2S)-1-[(10S,17E)-16-ethoxy-6,8,10,12-tetramethyl-2,8,10,11,12,13-hexahydro-14H-5,3-(azenometheno)tripyrazolo[3,4-f:3′,4′-j:4″,3″-n][1,4]oxazacyclopentadecin-14-yl]propan-2-ol]	7.67	1.11	0.04	0.68	1.09	0.69	0.3	0.54	1.57
CCOc1nn(CCO)c2c1/C=C/c1n[nH]c3c(C)nc(cc13)-c1c(C)nn(C)c1O[C@H](C)[C@H]1CCCN1C2 [Ex. 178]	12.5	0.93	0.06	1.02	0.81	0.67	0.39	0.59	1.29
CCOc1nn([C@@H](C)CO)c2c1/C=C/c1n[nH]c3cnc(cc13)-c1c(CC)nn(C)c1O[C@@H](C)CN(C)C2 [Ex. 82, (2S)-2-[(10S,17E)-16-ethoxy-6-ethyl-8,10,12-trimethyl-2,8,10,11,12,13-hexahydro-14H-5,3-(azenometheno)tripyrazolo[3,4-f:3′,4′-j:4″,3″-n][1,4]oxazacyclopentadecin-14-yl]propan-1-ol]	24.7	207	0.12	1.54	2.35	66.3	0.85	4.4	15
